Data: the NIST ThermoML archive (doi:10.1016/j.jct.2013.08.033)
Numbers after ± are expanded uncertainties.

What was measured:
[1] = xn = mol fraction of the nth substance listed; conditions: 101 kPa, Liquid, x2 = 0; for mass density: Pycnometric method
[2] = molar heat capacity at constant pressure; conditions: 101.33 kPa, Liquid, Small sample (50 mg) DSC
[3] = refractive index (Na D-line) (dimensionless); conditions: 298.15 K; 101.33 kPa; Liquid; Standard Abbe refractometry
[4] = 101 kPa, Liquid; for mass density: Pycnometric method; for speed of sound: Pulse-echo method

| Compound | mass density ([1]; 293.15 K) [kg/m3] | speed of sound ([1]; 298.15 K, Pulse-echo method) [m/s] | mass density ([1]; 298.15 K) [kg/m3] | mass density ([1]; 303.15 K) [kg/m3] | mass density ([1]; 308.15 K) [kg/m3] | molar heat capacity at constant pressure ([2]; 283.15 K) [J/K/mol] | molar heat capacity at constant pressure ([2]; 288.15 K) [J/K/mol] | molar heat capacity at constant pressure ([2]; 293.15 K) [J/K/mol] | molar heat capacity at constant pressure ([2]; 298.15 K) [J/K/mol] | molar heat capacity at constant pressure ([2]; 303.15 K) [J/K/mol] | molar heat capacity at constant pressure ([2]; 308.15 K) [J/K/mol] | molar heat capacity at constant pressure ([2]; 313.15 K) [J/K/mol] | molar heat capacity at constant pressure ([2]; 318.15 K) [J/K/mol] | refractive index [3] | mass density ([4]; 293.15 K) [kg/m3] | speed of sound ([4]; 298.15 K) [m/s] | mass density ([4]; 298.15 K) [kg/m3] | mass density ([4]; 303.15 K) [kg/m3] | mass density ([4]; 308.15 K) [kg/m3] |
| --- | --- | --- | --- | --- | --- | --- | --- | --- | --- | --- | --- | --- | --- | --- | --- | --- | --- | --- | --- |
| CCCCO [butan-1-ol] + CCC(O)CO | 809.65 ± 0.29 | 1240.2 ± 1.4 | 805.81 ± 0.3 | 801.98 ± 0.31 | 798.13 ± 0.32 | – | – | – | – | – | – | – | – | – | – | – | – | – | – |
| CCC(O)CO (stereo not drawn) [1,2-butanediol] | – | – | – | – | – | 222.86 ± 9.5 | 225.62 ± 9.6 | 228.35 ± 9.7 | 231.06 ± 9.8 | 233.74 ± 9.9 | 236.4 ± 10 | 239.05 ± 10 | 241.66 ± 10 | 1.4364 ± 0.0008 | 1002.32 ± 0.57 | 1449.9 ± 1.6 | 998.59 ± 0.58 | 994.78 ± 0.59 | 990.97 ± 0.6 |
| CCCCO [butan-1-ol] | – | – | – | – | – | 167.32 ± 7.1 | 170.35 ± 7.2 | 173.54 ± 7.4 | 176.9 ± 7.5 | 180.41 ± 7.7 | 184.09 ± 7.8 | 187.93 ± 8 | 191.93 ± 8.1 | 1.3972 ± 0.0008 | 809.65 ± 0.29 | 1240.2 ± 1.4 | 805.81 ± 0.3 | 801.98 ± 0.31 | 798.13 ± 0.32 |
